Data on three compounds can be found in paper PMC6037162 (Journal of the American Chemical Society, 2018).

Positions count from the first letter of the chain named. Several values for one entry are separate records, joined by “and”; a condition that tells them apart may be missing. Equal values may be shown once. Some results are limits rather than exact numbers.

Data set [1] is described as follows: Acidity constants of ligands in water.
In a further data set the target is wildtype cTIM (Gallus gallus, UniProt P00940). Put plainly: TIM-catalyzed isomerization of GAP. The format is biochemical, chicken. To be noted: deprotonation of EH·I^3–; estimated from (Ki)E·KEHI and (Ki)E.
Sequence of wildtype cTIM (P00940 whole entry): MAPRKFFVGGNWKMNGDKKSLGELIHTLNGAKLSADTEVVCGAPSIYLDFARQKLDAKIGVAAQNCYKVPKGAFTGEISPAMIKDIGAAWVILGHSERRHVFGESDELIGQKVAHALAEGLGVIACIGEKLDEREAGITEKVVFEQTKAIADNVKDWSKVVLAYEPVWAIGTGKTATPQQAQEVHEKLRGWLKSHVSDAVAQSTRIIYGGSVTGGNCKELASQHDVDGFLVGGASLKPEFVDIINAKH
Data set [2] addresses L7R cTIM (loop 7 replacement) (Gallus gallus, UniProt P00940, G210A/S211G/Y208T). Put plainly: TIM-catalyzed isomerization of GAP. The class given is biochemical, chicken.
The target of data set [3] is T1, wildtype TbbTIM (Trypanosoma brucei brucei, UniProt P04789). The format is biochemical. To be noted: deprotonation of EH·I^3–; estimated from (Ki)E·KEHI and (Ki)E.
The target of another data set is P166A TbbTIM (Trypanosoma brucei brucei, UniProt P04789, P168A). Put plainly: TIM-catalyzed isomerization of GAP. The class given is biochemical. The settings on record: difference to wildtype enzyme.
Data set [4] addresses T2, I170A TbbTIM (Trypanosoma brucei brucei, UniProt P04789, I172A). The data set can be described thus: TIM-catalyzed isomerization of GAP. The class given is biochemical.
A further data set addresses T3, Y208F yTIM (Saccharomyces cerevisiae, UniProt P00942, Y208F).
T3 sequence (P00942 1-248 Y208F): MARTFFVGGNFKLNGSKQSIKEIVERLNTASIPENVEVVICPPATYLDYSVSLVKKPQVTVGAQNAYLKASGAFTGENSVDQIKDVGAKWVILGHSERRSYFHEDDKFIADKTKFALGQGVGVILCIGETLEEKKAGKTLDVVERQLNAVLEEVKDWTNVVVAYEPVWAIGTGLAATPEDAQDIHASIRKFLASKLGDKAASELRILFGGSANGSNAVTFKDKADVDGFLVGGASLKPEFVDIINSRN
The data set can be described thus: TIM-catalyzed isomerization of GAP. The class given is biochemical, yeast.

The target in another data set is T4, S211A yTIM (Saccharomyces cerevisiae, UniProt P00942, S211A).
T4 sequence (P00942 1-248 S211A): T3 sequence (P00942 1-248 Y208F) with F208Y, S211A
The data set can be described thus: TIM-catalyzed isomerization of GAP. The class given is biochemical, yeast.

Data set [5] concerns wildtype TIM. The data set can be described thus: Binding of PGA trianion to wildtype TIMs, summary of Table 1. The class given is biochemical.
Another data set has as its target mutant TIMs. The data set can be described thus: Binding of PGA trianion to mutant TIMs, summary of Table 1. The format is biochemical. The settings on record: read-out: (Ki)E; range over mutant TIMs.
Data set [6] can be described thus: Storage stability of PGA stock solutions. The format is physicochemical. To be noted: solutions at pH 7.5 stored at −20 °C.
For data set [7], the target named is T1, wildtype TbbTIM. The settings on record: pH profile linear through pH 9.7; ref [14]; cited from earlier work.
Data set [8] deals with T2, I170A TbbTIM. The settings on record: deprotonation of EH·I^3–; ref [14]; cited from earlier work.
For data set [9] the following is noted: ref [20]; cited from earlier work.
Data set [10] has as its system wildtype TIM. To be noted: compared with D-GAP; ref [30]; cited from earlier work.
[11] abbreviates: deprotonation of EH·I^3–, fit to eq 7.
Where [12] appears, read: (Ki)E, release of PGA trianion from E^–·I^3–, fit to eq 7.

Sequence of L7R cTIM (loop 7 replacement) (P00940 whole entry Y208T/G210A/S211G): as the sequence (P00940 whole entry) above, with Y208T, G210A, S211G counted along it

Consider `O=C[C@H](O)COP(=O)(O)O` [GAP, D-Glyceraldehyde 3-phosphate], for which, in [1], the pKa worked out at 6 ± 0.1.

In the case of `O=C(O)COP(=O)(O)O` [PGA, 2-Phosphoglycolic acid], the KEHI at wildtype cTIM is recorded as 2.9 × 10^–11 M; in [2] (setting [11]), 1.8 × 10^–7 M; on wildtype TbbTIM [3], 1.2 × 10^–11 M; on Y208F yTIM (setting [11]) it was 4.9 × 10^–7 M; on I170A TbbTIM [8] it was 1.9 × 10^–8 M. For the same compound, the Ki was 2.6 mM in data set [2]; 7.94 mM on I170A TbbTIM [4]; 16 mM on Y208F yTIM (setting [12]); 15.8 mM at Y208F yTIM (log (Ki)E); 20 mM and 24 mM on S211A yTIM (setting [12]); 3 to 30 mM on mutant TIMs. The “Δ(pK)EHI” value in data set [2] (difference to wildtype enzyme) amounted to 3.8; on P166A TbbTIM, 0.7; on I170A TbbTIM [4] (difference to wildtype enzyme) it was 2.3; at Y208F yTIM (difference to wildtype enzyme), 4.1; at S211A yTIM (difference to wildtype enzyme) it was 2.2. In addition, the “binding energy for formation of E^–·I^3–” value in the data set on wildtype TIM [5] (from (Ki)E) was 3 kcal/mol. Besides, in the data set with wildtype TIM [5] (from (Ki)EH), the “binding energy of I^3– to EH” value fell in the range of 11.1 to 11.8 kcal/mol. The “stability toward hydrolysis of the phosphoryl group” value in [6] is on record as “at least 6 months”. Besides, the “pKEHI for release of a proton from the EH·I^3– complex” value at wildtype TbbTIM [7] is recorded as > 10. Also, the “pKa for loss of a proton from PGA dianion to form PGA trianion” value in [9] is 6.3.

Consider `O=C[C@@H](O)COP(=O)(O)O` [L-GAP], for which the “binding to TIM” value with wildtype TIM [10] is “binds much more weakly to TIM than D-GAP”.

Usually pKa stands for the pH at which an ionisable group is half protonated. Read a low pKa as a stronger acid or weaker base. Usually Ki stands for a measure of affinity in units of concentration, obtained from inhibition or displacement.
